Experimental data: patent US9763445B2, “Safened herbicidal compositions comprising a pyridine carboxylic acid herbicide” (Dow AgroSciences, LLC, priority 2014, dated 2017)

What was measured:
[1] = test system: purple deadnettle (LAMPU); test: Postemergence greenhouse trial, % visual injury on purple deadnettle; assay type: in vivo, Lamium purpureum
Protocol: (§1) Seeds of the desired test plant species were planted in Sun Gro MetroMix® 306 planting mixture, which typically has a pH of 6.0 to 6.8 and an organic matter content of about 30 percent, in plastic pots with a surface area of 103.2 square centimeters (cm^2). When required to ensure good germination and healthy plants, a fungicide treatment and/or other chemical or physical treatment was applied. The plants were grown for 7-36 days (d) in a greenhouse with an approximate 14-hour (h) photoperiod which was maintained at about 23° C. during the day and 22° C. during the night. Nutrients and water were added on a regular basis and supplemental lighting was provided with overhead metal halide 1000-Watt lamps as necessary. The plants were employed for testing when they reached the second or third true leaf stage.
(§2) Weighed amounts of technical material were dissolved in a volume of 97:3 volume per volume (v/v) acetone/dimethyl sulfoxide (DMSO) to stock solutions. […] The concentrated stock solutions were diluted with an aqueous mixture of 1.5% v/v of Agri-dex crop oil concentrate to provide the appropriate application rates. Compound requirements are based upon a 12 milliliter (mL) application volume at a rate of 187 liters per hectare (L/ha). Stocks solutions of the safeners were prepared following the same procedure. Spray solutions of the safeners and experimental compound mixtures were prepared by adding the stock solutions to the appropriate amount of dilution solution to form a 12 mL spray solution in two-way combinations. Formulated compounds were applied to the plant material with an overhead Mandel track sprayer equipped with 8002E nozzles calibrated to deliver 187 L/ha over an application area of 0.503 square meters (m^2) at a spray height of 18 inches (43 centimeters (cm)) above average plant canopy. Control plants were sprayed in the same manner with the solvent blank. All herbicide application (component a) rates are in g ae/ha and all safener (component b) rates are in g ai/ha.
(§3) The treated plants and control plants were placed in a greenhouse as described above and watered by sub-irrigation to prevent wash-off of the test compounds. After 20-22 d, the condition of the test plants as compared with that of the control plants was determined visually and scored on a scale of 0 to 100 percent where 0 corresponds to no injury and 100 corresponds to complete kill. Colby's equation was used to determine the herbicidal effects expected from the mixtures. […]

wild buckwheat (POLCO) = test: Postemergence greenhouse trial, % visual injury on wild buckwheat; assay type: in vivo, Polygonum convolvulus; conditions: alone, 35 g/ha
Outline: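 Visual injury, 0 (none) to 100 (complete kill), rated 20-22 d after overhead track-sprayer application at 187 L/ha; Colby's equation gave expected mixture responses. Herbicide (g ae/ha) and cloquintocet-mexyl safener (g ai/ha) diluted in aqueous 1.5% v/v Agri-dex, applied to weeds at 2–3 true leaves.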

shepherd's purse (CAPBP) [2] = test: Postemergence greenhouse trial, % visual injury on shepherd's purse; assay type: in vivo, Capsella bursa-pastoris
Protocol: as §1, §2
(§4) The treated plants and control plants were placed in a greenhouse as described above and watered by sub-irrigation to prevent wash-off of the test compounds. After 20-22 d, the condition of the test plants as compared with that of the control plants was determined visually and scored on a scale of 0 to 100 percent where 0 corresponds to no injury and 100 corresponds to complete kill. The condition of the test plants was compared with that of the control plants as determined visually and scored on a scale of 0 to 100 percent, where 0 corresponds to no injury and 100 corresponds to complete kill. Colby's equation was used to determine the herbicidal effects expected from the mixtures.
(§5) The safener cloquintocet-mexyl was combined with compound 1, compound 2, compound 3, compound 7, compound 8, compound 9, compound 10, compound 11, compound 12, compound 13, compound 14, compound 15, compound 16, compound 17, compound 18, compound 19, and compound 20, and applied to spring wheat (TRZAS), winter wheat (TRZAW), and spring barley (HORVS) and the phytotoxicity of the herbicidal compositions was measured. […]

prickly lettuce (LACSE) = test: Postemergence greenhouse trial, % visual injury on prickly lettuce; assay type: in vivo, Lactuca serriola
Protocol: as §1, §2, §3

cornflower (CENCY) [3] = test: Postemergence greenhouse trial, % visual injury on cornflower; assay type: in vivo, Centaurea cyanus or Cyanus segetum
Protocol: as §1, §2, §4, §5

cornflower (CENCY) [4] = test: as above; assay type: in vivo, Centaurea cyanus or Cyanus segetum; conditions: alone
shepherd's purse (CAPBP) [5] = test: Postemergence greenhouse trial, % visual injury on shepherd's purse; assay type: in vivo, Capsella bursa-pastoris; conditions: CQC-m 0
[6] = CAPBP, compound 4.380 g/ha, CQC-m 0
[7] = CAPBP, compound 17.5 g/ha, CQC-m 0
[8] = CAPBP, compound 70 g/ha, CQC-m 0
[9] = CENCY, compound 4.380 g/ha, CQC-m 0
[10] = CENCY, compound 8.75 g/ha, CQC-m 0
[11] = CENCY, compound 17.5 g/ha, CQC-m 0
[12] = CENCY, compound 35 g/ha, CQC-m 0
[13] = CENCY, compound 70 g/ha, CQC-m 0

Nc1c(F)c(-c2ccc3cc[nH]c3c2F)nc(C(=O)O)c1Cl [compound 1]
% visual injury, Ob ([1]; alone, 4.375 g/ha): 76% | % visual injury, Ob ([1]; alone, 8.75 g/ha): 86% | % visual injury, Ob ([1]; alone, 17.5 g/ha): 90% | % visual injury, Ob ([1]; alone, 35 g/ha): 98% | % visual injury, Ob ([1]; alone, 70 g/ha): 100% | % visual injury, Ob (wild buckwheat (POLCO)): 99% | % visual injury, Ob (shepherd's purse (CAPBP) [2]; alone, 4.375 g/ha): 70% | % visual injury, Ob (shepherd's purse (CAPBP) [2]; alone, 8.75 g/ha): 100% | % visual injury, Ob (shepherd's purse (CAPBP) [2]; alone, 17.5 g/ha): 100% | % visual injury, Ob (shepherd's purse (CAPBP) [2]; alone, 35 g/ha): 100% | % visual injury, Ob (shepherd's purse (CAPBP) [2]; alone, 70 g/ha): 100% | % visual injury, Ob (prickly lettuce (LACSE); alone, 4.375 g/ha): 70% | % visual injury, Ob (prickly lettuce (LACSE); alone, 8.75 g/ha): 93% | % visual injury, Ob (prickly lettuce (LACSE); alone, 17.5 g/ha): 100% | % visual injury, Ob (prickly lettuce (LACSE); alone, 35 g/ha): 100% | % visual injury, Ob (prickly lettuce (LACSE); alone, 70 g/ha): 100% | % visual injury, Ob (cornflower (CENCY) [3]; alone, 4.375 g/ha): 100% | % visual injury, Ob (cornflower (CENCY) [3]; alone, 8.75 g/ha): 100% | % visual injury, Ob (cornflower (CENCY) [3]; alone, 35 g/ha): 100% | % visual injury, Ob (cornflower (CENCY) [4]; 17.5 g/ha): 100% | % visual injury, Ob (cornflower (CENCY) [4]; 70 g/ha): 100%

COC(=O)c1nc(-c2ccc3cc[nH]c3c2F)c(F)c(N)c1OC [compound 12]
% visual injury, Ob (shepherd's purse (CAPBP) [5]; compound 8.75 g/ha): 100% | % visual injury, Ob (shepherd's purse (CAPBP) [5]; compound 35 g/ha): 100% | % visual injury, Ob ([1]; LAMPU, compound 4.380 g/ha, CQC-m 0): 60% | % visual injury, Ob ([1]; LAMPU, compound 8.75 g/ha, CQC-m 0): 75% | % visual injury, Ob ([1]; LAMPU, compound 17.5 g/ha, CQC-m 0): 80% | % visual injury, Ob ([1]; LAMPU, compound 35 g/ha, CQC-m 0): 90% | % visual injury, Ob ([1]; LAMPU, compound 70 g/ha, CQC-m 0): 97% | % visual injury, Ob (shepherd's purse (CAPBP) [2]; [6]): 70% | % visual injury, Ob (shepherd's purse (CAPBP) [2]; [7]): 100% | % visual injury, Ob (shepherd's purse (CAPBP) [2]; [8]): 100% | % visual injury, Ob (cornflower (CENCY) [3]; [9]): 85% | % visual injury, Ob (cornflower (CENCY) [3]; [10]): 95% | % visual injury, Ob (cornflower (CENCY) [3]; [11]): 100% | % visual injury, Ob (cornflower (CENCY) [3]; [12]): 100% | % visual injury, Ob (cornflower (CENCY) [3]; [13]): 100%

CO/C=N/c1c(F)c(-c2ccc3cc[nH]c3c2F)nc(C(=O)OC)c1Cl [compound 10]
% visual injury, Ob (shepherd's purse (CAPBP) [5]; compound 8.75 g/ha): 60% | % visual injury, Ob (shepherd's purse (CAPBP) [5]; compound 35 g/ha): 100% | % visual injury, Ob (shepherd's purse (CAPBP) [2]; [6]): 30% | % visual injury, Ob (shepherd's purse (CAPBP) [2]; [7]): 100% | % visual injury, Ob (shepherd's purse (CAPBP) [2]; [8]): 100% | % visual injury, Ob (prickly lettuce (LACSE); LACSE, compound 4.380 g/ha, CQC-m 0): 95% | % visual injury, Ob (prickly lettuce (LACSE); LACSE, compound 8.75 g/ha, CQC-m 0): 100% | % visual injury, Ob (prickly lettuce (LACSE); LACSE, compound 17.5 g/ha, CQC-m 0): 100% | % visual injury, Ob (prickly lettuce (LACSE); LACSE, compound 35 g/ha, CQC-m 0): 100% | % visual injury, Ob (prickly lettuce (LACSE); LACSE, compound 70 g/ha, CQC-m 0): 100% | % visual injury, Ob (cornflower (CENCY) [3]; [9]): 100% | % visual injury, Ob (cornflower (CENCY) [3]; [10]): 100% | % visual injury, Ob (cornflower (CENCY) [3]; [11]): 100% | % visual injury, Ob (cornflower (CENCY) [3]; [12]): 100% | % visual injury, Ob (cornflower (CENCY) [3]; [13]): 100%
